Results reported in article PMC9413514, “Accessing Lipophilicity and Biomimetic Chromatography Profile of Biologically Active Ingredients of Botanicals Used in the Treatment of Inflammatory Bowel Disease” (Pharmaceuticals, 2022).

Key:
[1] = C18-TLC assay (hydrophobicity); format: physicochemical; settings: for RM0 (TLC hydrophobicity index, intercept of linear equation): RP-18 TLC, PBS pH 7.4/methanol, extrapolated to zero organic modifier; for spot migration in C18-TLC: regardless the percentage of the organic modifier in the mobile phase
Text: In TLC measurements RF value depends on the chemical structure of analyte and its interaction with stationary and mobile phase. […] As it was expected, with increase in the percentage of organic modifier in the mobile phase the increase in RF values can be seen with accompanied decrease in RM values expressed as RM = log(1/RF - 1). Measured RF values were in the range from 0.1 to 0.7 obtained in a wide range of mobile phase organic modifier concentrations. […] Increasing concentration of the organic modifier in the mobile phase caused a slower decrease in the RM values for less hydrophobic analytes than for more hydrophobic ones. […] Increase in the hydrophobicity within curcuminoids and andrographolides is related to increase in lipophilicity determined by shake-flask method (Table 3). Stock solutions of analytes and calibration standards were prepared by dissolving 10 mg of each solute in 10 mL of methanol and kept at 4 °C. Working solutions were freshly prepared at the beginning of each day by dilution of the stock solutions to 100 μg/mL with methanol for TLC measurements or mobile phase for HPLC measurements. Before use, the samples were sonicated (Elmasonic […]) for 10 min at 25 °C and all working solutions were filtered through 0.2 μm polyethersulfone filters (Obrnuta faza). To protect analytes from photodegradation, the amber glass HPLC vials were used. Analyses were carried out using a commercially available 10 cm x 20 cm RP-18 TLC plates with fluorescent indicator (Merck KGaA). 5 μL of each working solution ([…]) was applied to the plates as 5 mm bends, 10 mm from the lower edge and 15 mm from sides of plates. The mobile phases were prepared by mixing the respective amounts of PBS (20 mM, pH 7.4) and methanol from 50% to 80% of organic solvent in 5% increment. The vertical flat-bottom chamber ([…], Switzerland) with a stainless-steel lid was saturated with mobile phase for 30 min. The plates were developed to a distance of 9 cm at room temperature, dried in the open air for 5 min and visualized under λ = 254 nm UV light (UV Cabinet with Dual Wavelength UV lamp by Camag).

[2] = IAM-HPLC assay (lipophilicity, affinity to phospholipids); format: physicochemical
Experimental: IAM columns provide potential to simulate membrane permeability since the amphiphilic character of phospholipid functional groups plays an important role in IAM retention especially when charged molecules are analysed.
(§1) Stock solutions of analytes and calibration standards were prepared by dissolving 10 mg of each solute in 10 mL of methanol and kept at 4 °C. Working solutions were freshly prepared at the beginning of each day by dilution of the stock solutions to 100 μg/mL with methanol for TLC measurements or mobile phase for HPLC measurements. Before use, the samples were sonicated (Elmasonic XtraTT, Elma Schmidbauer) for 10 min at 25 °C and all working solutions were filtered through 0.2 µm polyethersulfone filters (Obrnuta faza). To protect analytes from photodegradation, the amber glass HPLC vials were used.
C18-HPLC assay was carried out at Agilent HPLC 1100 and Zorbax SB C18 chromatographic column (length 250 mm.6 mm, particle size 5 µm) by Agilent Technologies, while IAM-HPLC assay was conducted using IAM P.C.DD2 chromatographic column (length 50 mm, i.d. 3.0 mm, particle size […]) by Regis Technologies (Morton Grove, IL, USA). Retention data were collected at 25.0 ± 0.1 °C using isocratic method working with mobile phases, mixing the respective amounts of PBS (10 mM, pH 7.4) and methanol from 35% to 80% of organic solvent in 5% increment. Each mobile phase was shaken vigorously and filtrated through membrane filter, no. 66, diameter 47 mm, pore size 0.45 µm by Supelco and degassed by sonication 5 min before use. The injection volume was set at 10 µL, and the measurements were carried out at flow rate 1.0 mL/min. Natrium nitrate solution (0.1 mg/mL in mobile phase) was used as the marker of dead-time. The absorbance of the analytes during a chromatographic run was collected in the spectral range of 200–400 nm, and the detection wavelength for each analyte was the one providing the maximum peak height.

[3] = molecular target: T1, human serum albumin (HSA) (Homo sapiens, UniProt P02768); test: HSA-HPAC assay (plasma protein binding); format: in vitro ADME; settings: Chiralpak-HSA, pH 7.4, 25 °C; spread is RSD in %
T1 construct: purchased ChromTech (Cedex, France) Chiralpak-HSA
T1 sequence (P02768 25-609): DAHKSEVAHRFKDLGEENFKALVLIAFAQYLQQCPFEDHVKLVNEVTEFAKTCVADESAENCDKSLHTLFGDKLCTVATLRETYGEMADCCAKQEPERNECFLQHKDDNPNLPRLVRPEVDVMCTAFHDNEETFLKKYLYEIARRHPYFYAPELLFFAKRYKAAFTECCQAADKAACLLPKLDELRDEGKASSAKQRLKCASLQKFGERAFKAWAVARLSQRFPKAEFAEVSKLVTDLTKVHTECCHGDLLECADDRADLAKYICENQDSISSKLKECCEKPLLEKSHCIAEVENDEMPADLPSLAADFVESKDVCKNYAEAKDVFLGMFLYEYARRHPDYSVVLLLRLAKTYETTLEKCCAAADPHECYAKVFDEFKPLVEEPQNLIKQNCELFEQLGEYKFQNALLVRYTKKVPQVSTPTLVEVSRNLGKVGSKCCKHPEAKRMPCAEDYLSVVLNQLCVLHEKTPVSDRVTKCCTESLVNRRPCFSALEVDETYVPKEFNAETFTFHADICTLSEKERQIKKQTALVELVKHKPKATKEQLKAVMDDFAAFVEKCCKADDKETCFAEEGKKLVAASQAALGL
Text: (§2) The gradient retention times obtained by HSA-HPAC and AGP-HPAC assays were standardized using a calibration set of compounds with known percentage of plasma protein binding data and procedure described in our previously published study. […] This verification assured that the protein affinity indices obtained by HPAC assays depict not only unspecific generally lipophilicity-driven interactions, but also highly specific recognition forces responsible of enantioselectivity.
as §1
(§3) The binding of biologically active compounds to the plasma proteins was investigated using affinity chromatographic columns by ChromTech (Cedex, France) containing immobilized human serum albumin (HSA) (Chiralpak-HSA, length 50 mm, i.d. 4.6 mm, particle size 5 µm) and α1-acid glycoprotein (AGP) (Chiralpak-AGP, length 50 mm, i.d. 4.6 mm, particle size 5 µm) and Agilent HPLC 1100 instrument. The 20 mM potassium phosphate buffer with the pH adjusted to 7.4 and iso-propanol were used as mobile phase components A and B. Retention data were collected at 25.0 ± 0.1 °C using gradient program as follows: 0 min/0% B, 6 min/30% B, 15 min/30% B and 20 min/0% B. Injection volume was set at 10 µL and the measurements were carried out at 25.0 ± 0.1 °C with flow rate of 1.5 mL/min. The absorbance of the analytes during a chromatographic run was collected in the spectral range 200–400 nm, and the detection wavelength for each analyte was the one providing the maximum peak height.

[4] = test system: α1-acid glycoprotein (AGP); test: AGP-HPAC assay (plasma protein binding); format: in vitro ADME; settings: Chiralpak-AGP, pH 7.4, 25 °C; spread is RSD in %
Text: as §2, §1, §3

[5] = Miniaturized shake-flask method (n-octanol/PBS pH 7.4) with HPLC analysis; format: physicochemical; settings: n-octanol/PBS 20 mM pH 7.4, 25 °C; spread is RSD in %; read-out: log D7.4 ± RSD (%) (n = 3)
Experimental: Stock solution of biologically active ingredients of botanicals used in IBD treatment were prepared using dimethylsulfoxide in concentration of 2 mg/mL. Working solutions were prepared daily by dilution of the stock solutions with PBS (20 mM, pH 7.4) pre-saturated with n-octanol. Before the injection into the HPLC system all solutions were sonicated for 15 min at room temperature in Elmasonic XtraTT (Elma Schmidbauer, Singen, Germany) and filtered through 0.2 μm polyethersulfone filters (Obrnuta faza, Pazin, Croatia).
The pre-saturated solutions of n-octanol and PBS (20 mM, pH 7.4) were used for determination of logarithm of distribution coefficient (log D7.4). The n-octanol and aqueous phase (mixture 1:1, v/v) were mutually saturated for 24 h in an orbital shaker-incubator ES-20/60 (Biosan, Riga, Latvia) at 100 oscillations per min at 25.0 ± 0.1 °C. The prepared mixture was left resting for at least 12 h in the thermostat at 25.0 ± 0.1 °C to ensure complete separation of the two phases. Until analysis, separated saturated solutions were kept in refrigerator at 4 °C.
Shake-flask procedure was conducted in amber 2 mL HPLC vials. 300 μL of the working solution was added to 1500 μL of n-octanol pre-saturated with PBS. To prevent material loss due to volatilisation, the two-phase system nearly filled the entire volume of the test vessels. All n-octanol–buffer mixtures were first vortexed for 1 min and then shaken for 1 h (150 oscillations per min) at room temperature (25.0 ± 0.1 °C) to reach equilibrium and phase distribution. Afterward, the samples were centrifuged using a Z 326 K tabletop centrifuge (HERMLE Labortechnik, Wehingen, Germany) for 30 min at 4000× g and 25 °C to ensure that possible emulsions were removed.
After equilibration and phase separation, the aqueous phase of all samples was analysed on an Agilent HPLC 1100 (Agilent Technologies, Waldbronn, Germany) with diode array detection. Analysis was conducted with a Zorbax SB C18 column (length 150 mm, i.d. 4.6 mm, particle size 5 μm) by Agilent Technologies. 10 min chromatographic runs were performed at 25.0 ± 0.1 °C in isocratic mode using a methanol/water mixture (60/40, v/v) with addition of 0.1% of formic acid as mobile phase modifier at a flow rate of 1.0 mL/min. The mobile phase was filtered through a membrane filter, no. 66, diameter 47 mm, pore size 0.45 µm (Supelco, Bellefonte, PA, USA). The vials were placed in the rack on the autosampler at 25 °C. The injection volume was 10 µL, with a needle offset of 0.5 mm. To avoid any carryover of the analyte-containing n-octanol phase, the outside of the syringe was subsequently washed in methanol before injection. The absorbance of the analytes during a chromatographic run was collected in the spectral range 200–400 nm, and the detection wavelength for each analyte was the one providing the maximum peak height.

[6] = IAM P.C.DD2 column, PBS pH 7.4/methanol, extrapolated to zero organic modifier

Row | RM0 (TLC hydrophobicity index, intercept of linear equation) [1] | logk0 IAM (HPLC lipophilicity index, intercept of linear equation) [2, 6] | HSA Binding ± RSD (%) (n = 3) [3] | AGP Binding ± RSD (%) (n = 3) [4] | spot migration in C18-TLC [1] | Δ RM0 (increase compared to 11-keto-β-boswellic acid) ([1]; compared to 11-keto-β-boswellic acid) | logk0 IAM (HPLC lipophilicity index, intercept of linear equation) ([2]; pH 7.4) | logD at 1 h [5] | Compound
1 | y = −0.0564 x + 5.3756 | y = −0.0570 x + 4.9194 | 98.09 ± 0.02% | 79.01 ± 0.20% | – | – | – | – | CC1CCC2(C)CCC3(C)C(=CC(=O)C4C5(C)CCC(O)C(C)(C(=O)O)C5CCC43C)C2C1C (stereo not drawn) [11-Keto-β-boswellic Acid, 11-keto-β-boswellic acid]
2 | – | y = −0.0788 x + 6.3109 | 98.94 ± 0.35% | 89.22 ± 0.30% | no spot migration was observed | – | – | – | CC1(C)CCC2(C)CCC3(C)C(=CCC4C5(C)CCC(O)C(C)(C(=O)O)C5CCC43C)C2C1 (stereo not drawn) [α-Boswellic Acid, α-boswellic acid]
3 | y = −0.0722 x + 6.9059 | – | 99.83 ± 0.47% | 83.10 ± 0.37% | – | 1.53 units | y = −0.0703 x + 5.1157 | – | CC(=O)O[C@@H]1CC[C@@]2(C)[C@@H](CC[C@]3(C)[C@@H]2C(=O)C=C2[C@@H]4[C@@H](C)[C@H](C)CC[C@]4(C)CC[C@]23C)[C@@]1(C)C(=O)O [3-Acetyl-11-keto-β-boswellic Acid, 3-acetyl-11-keto-β-boswellic acid]
4 | – | – | 99.79 ± 0.30% | 89.15 ± 2.04% | no spot migration was observed | – | y = −0.0816 x + 6.5157 | – | C[C@H]1[C@H](C)CC[C@]2(C)CC[C@]3(C)C(=CC[C@@H]4[C@@]5(C)CC[C@@H](O)[C@](C)(C(=O)O)[C@@H]5CC[C@]43C)[C@H]12 [β-Boswellic Acid, β-boswellic acid]
5 | – | – | 97.52 ± 0.20% | 83.07 ± 1.10% | – | – | – | 1.94 | COc1cc(/C=C/C(=O)CC(=O)/C=C/c2ccc(O)c(OC)c2)ccc1O [Curcumin, curcumin]
